Read-outs that look alike come from different tables or passages of the source.

Consider five compounds from patent US20040224981A1, “Antibacterial methods and compositions” (priority 2003, published 2004).

In one test the test system is S. pyogenes. Description: MIC against S. pyogenes. Format: cell-based, Streptococcus pyogenes. As to the method:
(§1) The MRS inhibitor 4 alone and in combination with mupirocin (mupirocin salt and 1:1 combination) were tested against a collection of Gram-positive pathogens.
S. pyogenes is also a significant skin pathogen and 48 recent clinical isolates were tested for their susceptibility to MRSi compound 5 alone (acetate) and in combination (1:1) with mupirocin (mupirocinate).

In the next test the test system is S. aureus. Description: MIC against S. aureus strains and clinical isolates (broth microdilution). The format is cell-based, Staphylococcus aureus. The following applies: for MIC90: all S. aureus strains of Table 1; for MIC Range: all S. aureus strains of Table 1 (mupirocin-susceptible and -resistant). The procedure: were tested against a collection of clinical isolates of S. aureus including strains that were multi-resistant to mupirocin and to other agents such as gentamicin and oxacillin.
The acetate and mupirocin salts of the MRS inhibitor compound 5 were tested against a collection of both low and high-level mupirocin resistant clinical isolates of S. aureus (Table 6).
The bacterial strains were tested for susceptibility to mupirocin and MRSi compound 2 using the broth microdilution method in accordance with NCCLS guideline to determine their MICs.
Briefly, the MIC and checkerboard titration assays were performed with strains in microtiter trays with cation-supplemented Mueller-Hinton broth (Difco). Inocula were prepared by suspending growth from blood agar plates in sterile saline to a density equivalent to that of a 0.5 McFarland standard and were diluted […] to produce a final inoculum of 5×10^5 CFU/ml. The trays were incubated aerobically overnight. Standard quality control strains were included with each run. Fractional inhibitory concentrations (FICs) were calculated as the MIC of drug A or B in combination/MIC of drug A or B alone, and the FIC index was obtained by adding the two FICs. FIC indices were interpreted as synergistic if the values were ≦0.5, additive or indifferent if the values were >0.5 to 4, and antagonistic if the values were >4.0.

A further test concerns E. faecalis. Description: MIC against E. faecalis. The format is cell-based. The procedure: as §1
(§2) MRSi compound 5 alone and in combination with mupirocin was tested recent clinical isolates of E. faecalis (n=28) and E. faecium (n=23). Both the acetate salt and mupirocinate salts of MRSi compound 5 maintained potent activity against vancomycin-susceptible and—resistant enterococci (Tables 8, 9, and 10).

In the next test the test system is S. hemolyticus. Description: MIC against S. hemolyticus. The format is cell-based. The procedure:
as §1
(§3) The MRS inhibitor 8 was also prepared as a fusidate and mupirocinate salt and tested for antibacterial activity against Gram-positive bacteria (Table 3). […] MRSi compound 8 alone and the fusidate and mupirocin salts were active against mupirocin-resistant S. aureus and S. epidermidis and organisms such as E. faecalis that are not susceptible to mupirocin.
(§4) The MRS inhibitor 5 acetate and mupirocin salts were tested against a collection of Gram-positive bacteria.

The next test concerns S. epidermidis. Description: MIC against S. epidermidis. The format is cell-based. The procedure:
as §1, §3, §4

The subject of a further test is E. faecium. Description: MIC against E. faecium. The format is cell-based. The following applies: Table 8, E. faecium ATCC 33667. The procedure: as §2
[1] abbreviates: Table 3, S. pyogenes ATCC 19615.
[2] abbreviates: Table 3, S. pyogenes MB143 (macrolide rest.).
[3] abbreviates: Table 3, S. aureus ATCC 43300 (ORSA).
The mark [4] stands for this setting: Table 3, S. aureus NRS107 (mupA).
Setting [5] is: Table 3, E. faecalis ATCC 29212.

With `CC(=O)O[C@H]1C[C@@]2(C)[C@@H](C[C@@H](O)[C@H]3[C@@]4(C)CC[C@@H](O)[C@@H](C)[C@@H]4CC[C@@]32C)/C1=C(\CCC=C(C)C)C(=O)O.Clc1cc(Cl)c2c(Cl)c(CNCCCNc3nc4ncccc4[nH]3)[nH]c2c1` [MRSi Cmpd 8 fusidate, N-(1H-IMIDAZO[4,5-B] PYRIDIN-2-YL)-N′-(3,4,6-TRICHLORO-1H-INDOL-2-YLMETHYL)-PROPANE-1,3-DIAMINE FUSIDATE], the MIC in the test on S. pyogenes (setting [1]) was 0.5 µg/mL; with S. pyogenes (setting [2]), 0.5 µg/mL; in the test with S. aureus (Table 3, S. aureus ATCC 29213) it was 0.12 µg/mL; with S. aureus (setting [3]) it was 0.06 µg/mL; with S. aureus (setting [4]), 0.06 µg/mL; in the test with S. aureus (Table 3, S. aureus Oxford), 0.06 µg/mL. The MIC in the test with E. faecalis (Table 3, E. faecalis 1) came to 0.06 µg/mL; in the test on E. faecalis (Table 3, E. faecalis 7) it was 0.12 µg/mL; in the test on E. faecalis (setting [5]) it was 0.12 µg/mL; in the test on S. hemolyticus (Table 3, S. hemolyticus NRS50) it was 0.12 µg/mL; with S. hemolyticus (Table 3, S. hemolyticus NRS116), 0.25 µg/mL; in the test with S. epidermidis (Table 3, S. epidermidis NRS6), 0.25 µg/mL. Besides, the MIC in the test with S. epidermidis (Table 3, S. epidermidis NRS7) was 0.12 µg/mL; in the test on S. epidermidis (Table 3, S. epidermidis NRS8), 0.25 µg/mL.

As for `O=c1cc(NCCCNC2CCNc3c(Br)cc(Br)cc32)[nH]c2ccccc12` (stereo not drawn) [MRSi cmpd 1, 2-[3-(6,8-Dibromo-2,3,4,5-tetrahydroquinolin-4-ylamino)prop-1-ylamino]-1H-quinolin-4-one], the MIC entry with E. faecium is “≦0.004 μg/mL”; in the test with S. aureus (S. aureus 10-420 (LL Mup. Rest.)), 0.12 µg/mL; in the test with S. aureus (S. aureus 14-354 (LL Mup. Rest.)), 0.25 µg/mL; with S. aureus (S. aureus 25-670 (HL Mup. Rest.)) it was 0.12 µg/mL; in the test with S. aureus (S. aureus 31-1334 (LL Mup Rest.)), 0.12 µg/mL; with S. aureus (S. aureus 36-1298 (LL Mup. Rest.)), 0.015 µg/mL. Further, the MIC in the test on S. aureus (S. aureus 87-2797 (HL Mup. Rest.)) came to 0.12 µg/mL; in the test with S. aureus (S. aureus 87-2797 (Mup. Susc.)), 0.12 µg/mL; with S. aureus (S. aureus 101-100 (Mup. Susc.)), 0.06 µg/mL; with S. aureus (S. aureus ATCC 43300 (ORSA)), 0.25 µg/mL; with S. aureus (S. aureus LZ1 (HL Mup rest.)), 0.06 µg/mL; in the test on S. aureus (S. aureus LZ6 (HL Mup rest.)), 0.12 µg/mL. The minimal inhibitory concentration (MIC) stood at 0.06 µg/mL in the test on S. aureus (S. aureus LZ8 (LL Mup. Rest.)); 0.06 µg/mL in the test on S. aureus (S. aureus LZ9); 0.12 µg/mL in the test on S. aureus (S. aureus LZ10); 0.12 µg/mL with S. aureus (S. aureus Miles Hall); 0.12 µg/mL with S. aureus (S. aureus NRS1 (VISA)); 0.03 µg/mL with S. aureus (S. aureus NRS107 (HL Mup rest.)). Moreover, the MIC in the test on S. aureus (S. aureus Oxford) is 0.12 µg/mL; in the test on E. faecalis (Table 8, E. faecalis 1), “≦0.004 μg/mL”; in the test on E. faecalis (Table 8, E. faecalis 7), 0.015 µg/mL; in the test on E. faecalis (Table 8, E. faecalis ATCC 51299 (VRE)), 0.015 µg/mL. The “MIC90” value in the test with S. aureus is 0.25 µg/mL. For the same compound, in the test with S. aureus, the “MIC Range” value lay in the range of 0.015 to 0.12 µg/mL.

As for `Cc1c(CNCCCNc2cc(=O)c3ccccc3[nH]2)sc(Br)c1Br` [MRSI Cmpd 4 acetate, N-(4,5-Dibromo-3-methylthiophen-2-ylmethyl)-N′-(1H-quinolin-4-one)propane-1,3-diamine], the MIC in the test with S. pyogenes (Streptococcus pyogenes, ATCC19615, Table 2, S. pyogenes ATCC 19615, read-out: MIC) stood at 0.25 µg/mL; in the test on S. pyogenes (Streptococcus pyogenes, Table 2, S. pyogenes MB143 (macrolide rest.), read-out: MIC), 0.12 µg/mL; in the test with S. aureus (Staphylococcus aureus, ATCC29213, Table 2, S. aureus ATCC 29213, read-out: MIC) it was 0.25 µg/mL; in the test on S. aureus (Staphylococcus aureus, ATCC43300, Table 2, S. aureus ATCC 43300 (ORSA), read-out: MIC) it was 0.25 µg/mL; in the test with S. aureus (Staphylococcus aureus, NRS107, Table 2, S. aureus NRS107 (mupA), read-out: MIC), 0.03 µg/mL; in the test on S. aureus (Staphylococcus aureus, Table 2, S. aureus Oxford, read-out: MIC), 0.03 µg/mL. Besides, the MIC with E. faecalis (Enterococcus faecalis, ATCC29212, Table 2, E. faecalis ATCC 29212, read-out: MIC) was no more than 0.008 µg/mL; with E. faecalis (Enterococcus faecalis, Table 2, E. faecalis 1, read-out: MIC), 0.015 µg/mL; in the test on E. faecalis (Enterococcus faecalis, Table 2, E. faecalis 7, read-out: MIC), no more than 0.008 µg/mL; in the test with S. hemolyticus (Table 2, S. hemolyticus NRS50, read-out: MIC), 0.25 µg/mL; in the test on S. hemolyticus (Table 2, S. hemolyticus NRS116, read-out: MIC), 0.5 µg/mL; in the test on S. epidermidis (Staphylococcus epidermidis, Table 2, S. epidermidis NRS6, read-out: MIC), 0.5 µg/mL. For the same compound, the MIC in the test on S. epidermidis (Staphylococcus epidermidis, Table 2, S. epidermidis NRS7, read-out: MIC) was 0.03 µg/mL; in the test on S. epidermidis (Staphylococcus epidermidis, Table 2, S. epidermidis NRS8, read-out: MIC), 0.25 µg/mL.

Regarding `CC(=CC(=O)OCCCCCCCCC(=O)O)CC1OCC(CC2OC2C(C)C(C)O)C(O)C1O.Clc1cc(Cl)c2c(Cl)c(CNCCCNc3nc4cccnc4[nH]3)[nH]c2c1` (stereo not drawn) [MRSi Cmpd 8 mupirocinate, N-(1H-IMIDAZO [4,5-B]PYRIDIN-2-YL)-N′-(3,4,6-TRICHLORO-1H—INDOL-2-YLMETHYL)-PROPANE-1,3-DIAMINE MUPIROCINATE], the minimum inhibitory concentration (MIC) in the test with S. pyogenes (setting [1]) is 0.25 µg/mL; in the test on S. pyogenes (setting [2]) it was 0.12 µg/mL; in the test with S. aureus (Table 3, S. aureus ATCC 29213) it was 0.12 µg/mL; in the test on S. aureus (setting [3]) it was 0.12 µg/mL; with S. aureus (setting [4]), 0.12 µg/mL; in the test on S. aureus (Table 3, S. aureus Oxford), 0.12 µg/mL. Besides, the MIC came to 0.06 µg/mL in the test with E. faecalis (Table 3, E. faecalis 1); 0.12 µg/mL in the test on E. faecalis (Table 3, E. faecalis 7); 0.12 µg/mL with E. faecalis (setting [5]); 0.12 µg/mL with S. hemolyticus (Table 3, S. hemolyticus NRS50); 0.25 µg/mL in the test with S. hemolyticus (Table 3, S. hemolyticus NRS116); 0.5 µg/mL with S. epidermidis (Table 3, S. epidermidis NRS6). Further, the MIC with S. epidermidis (Table 3, S. epidermidis NRS7) stood at 0.12 µg/mL; in the test on S. epidermidis (Table 3, S. epidermidis NRS8) it was 0.25 µg/mL.

With `O=c1cc(NC[C@H]2CCC[C@@H]2NCc2ccc(Cl)c(Cl)c2)[nH]c2ccccc12` [MRSi cmpd 3, 2-{[(1R, 2S)-2-(3,4-Dichlorobenzylamino)cyclopentylmethyl]amino}-1H-quinolin-4-one], the minimum inhibitory concentration (MIC) is 0.03 µg/mL in the test on E. faecium (Enterococcus faecium, ATCC33667, read-out: MIC); 4 µg/mL in the test with S. aureus (Staphylococcus aureus, ATCC43300, S. aureus ATCC 43300 (ORSA), read-out: MIC); 4 µg/mL in the test on S. aureus (Staphylococcus aureus, NRS 1 / VISA, S. aureus NRS1 (VISA), read-out: MIC); 1 µg/mL in the test on S. aureus (Staphylococcus aureus, NRS107, S. aureus NRS107 (HL Mup rest.), read-out: MIC); 2 µg/mL in the test with S. aureus (Staphylococcus aureus, S. aureus 10-420 (LL Mup. Rest.), read-out: MIC); 4 µg/mL in the test with S. aureus (Staphylococcus aureus, S. aureus 14-354 (LL Mup. Rest.), read-out: MIC). Moreover, the MIC was found to be 4 µg/mL in the test on S. aureus (Staphylococcus aureus, S. aureus 25-670 (HL Mup. Rest.), read-out: MIC); 2 µg/mL in the test with S. aureus (Staphylococcus aureus, S. aureus 31-1334 (LL Mup Rest.), read-out: MIC); 1 µg/mL in the test on S. aureus (Staphylococcus aureus, S. aureus 36-1298 (LL Mup. Rest.), read-out: MIC); 4 µg/mL in the test with S. aureus (Staphylococcus aureus, S. aureus 87-2797 (HL Mup. Rest.), read-out: MIC); 2 µg/mL in the test on S. aureus (Staphylococcus aureus, S. aureus 87-2797 (Mup. Susc.), read-out: MIC); 2 µg/mL in the test with S. aureus (Staphylococcus aureus, S. aureus 101-100 (Mup. Susc.), read-out: MIC). Besides, the MIC came out at 2 µg/mL in the test with S. aureus (Staphylococcus aureus, S. aureus LZ1 (HL Mup rest.), read-out: MIC); 2 µg/mL with S. aureus (Staphylococcus aureus, S. aureus LZ6 (HL Mup rest.), read-out: MIC); 4 µg/mL with S. aureus (Staphylococcus aureus, S. aureus LZ8 (LL Mup. Rest.), read-out: MIC); 2 µg/mL in the test on S. aureus (Staphylococcus aureus, S. aureus LZ9, read-out: MIC); 2 µg/mL in the test with S. aureus (Staphylococcus aureus, S. aureus LZ10, read-out: MIC); 2 µg/mL in the test with S. aureus (Staphylococcus aureus, S. aureus Miles Hall, read-out: MIC). The minimum inhibitory concentration (MIC) in the test on S. aureus (Staphylococcus aureus, S. aureus Oxford, read-out: MIC) is 2 µg/mL; in the test with E. faecalis (Enterococcus faecalis, ATCC 51299 / VRE, Table 8, E. faecalis ATCC 51299 (VRE), read-out: MIC), 0.5 µg/mL; in the test on E. faecalis (Enterococcus faecalis, Table 8, E. faecalis 1, read-out: MIC) it was 0.12 µg/mL; with E. faecalis (Enterococcus faecalis, Table 8, E. faecalis 7, read-out: MIC), 0.5 µg/mL. In addition, the MIC90 with S. aureus (Staphylococcus aureus, read-out: MIC 90) turned out to be 4 µg/mL. Also, in the test with S. aureus, the “MIC Range” value was in the range of 1 to 4 µg/mL.

Usually MIC stands for the least concentration at which growth counts as inhibited.
